{"source": "ChEMBL document CHEMBL5465560", "about": "“Selectivity Literature for EUbOPEN Chemogenomic Library” (2024)", "key": {"[1]": {"target": "Serine/threonine-protein kinase 33 (Homo sapiens) (UniProt Q9BYT3)", "sequence (Q9BYT3 whole entry, looked up)": "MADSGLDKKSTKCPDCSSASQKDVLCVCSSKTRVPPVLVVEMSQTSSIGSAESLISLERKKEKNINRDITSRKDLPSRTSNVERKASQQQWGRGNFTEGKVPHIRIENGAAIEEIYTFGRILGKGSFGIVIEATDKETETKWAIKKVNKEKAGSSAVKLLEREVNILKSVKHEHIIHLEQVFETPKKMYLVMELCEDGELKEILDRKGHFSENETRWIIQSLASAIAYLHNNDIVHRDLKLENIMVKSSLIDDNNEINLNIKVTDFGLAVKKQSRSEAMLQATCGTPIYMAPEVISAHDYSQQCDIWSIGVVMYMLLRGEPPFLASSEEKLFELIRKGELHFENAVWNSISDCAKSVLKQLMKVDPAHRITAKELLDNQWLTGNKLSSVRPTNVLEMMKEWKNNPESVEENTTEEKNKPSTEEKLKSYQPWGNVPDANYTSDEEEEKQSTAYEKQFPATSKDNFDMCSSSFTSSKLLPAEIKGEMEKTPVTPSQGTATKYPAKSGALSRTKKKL", "settings": "at 10 µM"}, "[2]": {"target": "Ribosomal protein S6 kinase alpha-1 (Homo sapiens, UniProt Q15418)", "experiment": "Selectivity interaction (KinomeScan (DiscoverX)) EUB0001049a RPS6KA1", "settings": "at 1 µM"}, "[3]": {"target": "Fibroblast growth factor receptor 1 (Homo sapiens, UniProt P11362)", "sequence (P11362 22-822 limits assumed)": "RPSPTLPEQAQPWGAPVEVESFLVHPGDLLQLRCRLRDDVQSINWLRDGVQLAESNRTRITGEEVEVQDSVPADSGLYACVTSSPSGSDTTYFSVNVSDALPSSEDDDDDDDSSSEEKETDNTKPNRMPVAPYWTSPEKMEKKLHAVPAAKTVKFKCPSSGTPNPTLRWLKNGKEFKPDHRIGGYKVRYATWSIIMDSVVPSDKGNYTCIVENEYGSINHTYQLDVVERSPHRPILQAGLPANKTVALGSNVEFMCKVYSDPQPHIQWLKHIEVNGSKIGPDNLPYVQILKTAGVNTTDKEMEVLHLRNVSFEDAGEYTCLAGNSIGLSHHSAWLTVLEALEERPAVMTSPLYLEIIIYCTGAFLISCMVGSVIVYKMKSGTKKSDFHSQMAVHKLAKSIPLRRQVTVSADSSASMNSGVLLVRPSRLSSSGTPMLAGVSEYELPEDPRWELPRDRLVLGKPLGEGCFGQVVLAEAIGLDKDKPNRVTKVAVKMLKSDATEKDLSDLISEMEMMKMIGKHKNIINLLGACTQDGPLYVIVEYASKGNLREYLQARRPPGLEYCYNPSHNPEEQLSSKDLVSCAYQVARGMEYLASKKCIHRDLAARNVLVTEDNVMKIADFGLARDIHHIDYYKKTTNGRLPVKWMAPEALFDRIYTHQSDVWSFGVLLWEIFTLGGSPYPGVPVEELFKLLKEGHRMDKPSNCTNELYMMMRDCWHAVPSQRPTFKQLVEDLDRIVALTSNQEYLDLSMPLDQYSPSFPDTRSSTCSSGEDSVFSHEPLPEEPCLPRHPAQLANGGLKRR", "experiment": "Selectivity interaction (KinomeScan (DiscoverX)) EUB0001049a FGFR1", "settings": "at 1 µM"}, "[4]": {"target": "Non-receptor tyrosine-protein kinase TYK2 (Homo sapiens, UniProt P29597)", "experiment": "Selectivity interaction (KinomeScan (DiscoverX)) EUB0001049a TYK2", "settings": "at 1 µM"}, "[5]": {"target": "TRAF2 and NCK-interacting protein kinase (Homo sapiens) (UniProt Q9UKE5)", "experiment": "Selectivity interaction (Ambit KINOMEscan and KiNATiv profiling in Jurkat cells) EUB0000090b TNIK", "type": "cell-based", "settings": "at 1 µM"}, "[6]": {"target": "Casein kinase I isoform delta (Homo sapiens, UniProt P48730)", "sequence (P48730 whole entry, looked up, canonical isoform)": "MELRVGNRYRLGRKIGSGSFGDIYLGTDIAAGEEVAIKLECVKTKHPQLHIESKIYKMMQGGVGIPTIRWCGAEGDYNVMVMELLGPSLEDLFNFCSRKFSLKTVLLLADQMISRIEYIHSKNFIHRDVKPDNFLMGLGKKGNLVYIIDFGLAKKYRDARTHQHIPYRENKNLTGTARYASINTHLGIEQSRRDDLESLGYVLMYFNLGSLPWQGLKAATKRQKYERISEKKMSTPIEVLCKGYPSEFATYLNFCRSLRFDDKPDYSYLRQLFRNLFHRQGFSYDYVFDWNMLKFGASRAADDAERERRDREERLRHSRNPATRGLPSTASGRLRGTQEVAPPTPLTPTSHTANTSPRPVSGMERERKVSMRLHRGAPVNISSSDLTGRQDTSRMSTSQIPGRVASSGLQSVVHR", "experiment": "Selectivity interaction (Ambit KINOMEscan and KiNATiv profiling in Jurkat cells) EUB0000090b CSNK1D", "type": "cell-based", "settings": "at 1 µM"}, "[7]": {"target": "T1, Histone-lysine N-methyltransferase NSD3 (Homo sapiens) (UniProt Q9BZ95)", "T1 sequence (whole entry)": "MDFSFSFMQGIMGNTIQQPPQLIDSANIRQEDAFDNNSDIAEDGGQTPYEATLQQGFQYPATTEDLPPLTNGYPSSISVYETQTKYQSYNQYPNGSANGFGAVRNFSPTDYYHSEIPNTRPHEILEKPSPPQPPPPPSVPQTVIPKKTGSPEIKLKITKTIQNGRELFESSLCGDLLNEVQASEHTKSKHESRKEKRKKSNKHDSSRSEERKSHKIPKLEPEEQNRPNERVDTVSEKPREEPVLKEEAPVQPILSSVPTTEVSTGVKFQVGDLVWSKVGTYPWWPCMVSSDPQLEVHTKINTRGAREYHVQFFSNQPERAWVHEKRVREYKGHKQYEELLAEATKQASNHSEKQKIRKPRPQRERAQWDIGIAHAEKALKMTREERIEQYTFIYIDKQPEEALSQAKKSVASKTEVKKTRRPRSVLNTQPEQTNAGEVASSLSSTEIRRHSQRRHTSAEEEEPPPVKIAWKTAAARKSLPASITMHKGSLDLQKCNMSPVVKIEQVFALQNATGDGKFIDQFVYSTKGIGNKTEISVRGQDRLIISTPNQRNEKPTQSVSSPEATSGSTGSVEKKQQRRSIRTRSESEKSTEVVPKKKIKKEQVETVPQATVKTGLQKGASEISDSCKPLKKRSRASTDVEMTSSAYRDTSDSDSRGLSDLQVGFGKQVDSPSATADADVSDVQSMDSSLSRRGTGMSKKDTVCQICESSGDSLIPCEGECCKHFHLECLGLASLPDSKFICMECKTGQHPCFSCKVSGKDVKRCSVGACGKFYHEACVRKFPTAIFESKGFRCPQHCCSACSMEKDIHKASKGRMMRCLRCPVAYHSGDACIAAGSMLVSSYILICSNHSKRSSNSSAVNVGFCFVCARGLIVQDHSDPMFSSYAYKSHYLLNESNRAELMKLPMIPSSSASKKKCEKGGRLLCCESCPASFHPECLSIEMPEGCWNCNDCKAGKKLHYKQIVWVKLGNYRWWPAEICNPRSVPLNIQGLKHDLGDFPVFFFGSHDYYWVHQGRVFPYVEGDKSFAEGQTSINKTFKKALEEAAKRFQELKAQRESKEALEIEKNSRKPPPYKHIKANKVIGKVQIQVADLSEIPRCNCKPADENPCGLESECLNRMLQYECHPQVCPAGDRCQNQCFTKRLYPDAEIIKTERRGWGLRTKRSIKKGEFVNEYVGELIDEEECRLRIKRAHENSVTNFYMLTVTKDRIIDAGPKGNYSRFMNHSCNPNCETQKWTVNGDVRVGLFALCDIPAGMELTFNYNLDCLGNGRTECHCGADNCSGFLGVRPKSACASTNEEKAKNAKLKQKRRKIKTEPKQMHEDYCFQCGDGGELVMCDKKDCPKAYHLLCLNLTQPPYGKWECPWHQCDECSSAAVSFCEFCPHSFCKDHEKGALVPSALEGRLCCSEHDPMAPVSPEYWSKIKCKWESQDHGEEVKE", "experiment": "Selectivity interaction (PWWP, WD40, and Tudor domain panel (DSLS measurements, literature)) EUB0000270b NSD3"}, "[8]": {"target": "Ribosomal protein S6 kinase alpha-6 (Homo sapiens, UniProt Q9UK32)", "experiment": "Selectivity interaction (KinomeScan (DiscoverX)) EUB0000695a RPS6KA6", "settings": "at 100 nM"}, "[9]": {"target": "ATP-sensitive inward rectifier potassium channel 11 (Homo sapiens) (UniProt Q14654)", "sequence (Q14654 whole entry)": "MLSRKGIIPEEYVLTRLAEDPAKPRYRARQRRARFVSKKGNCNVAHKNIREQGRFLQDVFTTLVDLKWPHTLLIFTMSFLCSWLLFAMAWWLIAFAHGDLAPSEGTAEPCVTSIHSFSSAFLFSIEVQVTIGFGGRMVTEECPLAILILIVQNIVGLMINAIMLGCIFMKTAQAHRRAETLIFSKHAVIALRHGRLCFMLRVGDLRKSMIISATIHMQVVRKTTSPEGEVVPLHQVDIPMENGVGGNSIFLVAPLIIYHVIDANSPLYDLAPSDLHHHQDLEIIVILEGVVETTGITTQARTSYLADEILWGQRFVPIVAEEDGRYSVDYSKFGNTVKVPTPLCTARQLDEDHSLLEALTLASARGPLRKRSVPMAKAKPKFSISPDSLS", "experiment": "Selectivity interaction (Eurofins CEREP Diversity Profile (receptors and ion channels)) EUB0000279b KCNJ11", "settings": "at 10 µM"}, "[10]": {"target": "Receptor tyrosine-protein kinase erbB-3 (Homo sapiens) (UniProt P21860)", "experiment": "Selectivity interaction (KinomeScan (DiscoverX)) EUB0000595a ERBB3", "settings": "at 10 µM"}, "[11]": {"target": "MAP/microtubule affinity-regulating kinase 3 (Homo sapiens) (UniProt P27448)", "experiment": "Selectivity interaction (KinomeScan (DiscoverX)) EUB0000229b MARK3", "settings": "at 10 µM"}, "[12]": {"target": "Serine/threonine-protein kinase WNK2 (Homo sapiens) (UniProt Q9Y3S1)", "sequence (Q9Y3S1 whole entry)": "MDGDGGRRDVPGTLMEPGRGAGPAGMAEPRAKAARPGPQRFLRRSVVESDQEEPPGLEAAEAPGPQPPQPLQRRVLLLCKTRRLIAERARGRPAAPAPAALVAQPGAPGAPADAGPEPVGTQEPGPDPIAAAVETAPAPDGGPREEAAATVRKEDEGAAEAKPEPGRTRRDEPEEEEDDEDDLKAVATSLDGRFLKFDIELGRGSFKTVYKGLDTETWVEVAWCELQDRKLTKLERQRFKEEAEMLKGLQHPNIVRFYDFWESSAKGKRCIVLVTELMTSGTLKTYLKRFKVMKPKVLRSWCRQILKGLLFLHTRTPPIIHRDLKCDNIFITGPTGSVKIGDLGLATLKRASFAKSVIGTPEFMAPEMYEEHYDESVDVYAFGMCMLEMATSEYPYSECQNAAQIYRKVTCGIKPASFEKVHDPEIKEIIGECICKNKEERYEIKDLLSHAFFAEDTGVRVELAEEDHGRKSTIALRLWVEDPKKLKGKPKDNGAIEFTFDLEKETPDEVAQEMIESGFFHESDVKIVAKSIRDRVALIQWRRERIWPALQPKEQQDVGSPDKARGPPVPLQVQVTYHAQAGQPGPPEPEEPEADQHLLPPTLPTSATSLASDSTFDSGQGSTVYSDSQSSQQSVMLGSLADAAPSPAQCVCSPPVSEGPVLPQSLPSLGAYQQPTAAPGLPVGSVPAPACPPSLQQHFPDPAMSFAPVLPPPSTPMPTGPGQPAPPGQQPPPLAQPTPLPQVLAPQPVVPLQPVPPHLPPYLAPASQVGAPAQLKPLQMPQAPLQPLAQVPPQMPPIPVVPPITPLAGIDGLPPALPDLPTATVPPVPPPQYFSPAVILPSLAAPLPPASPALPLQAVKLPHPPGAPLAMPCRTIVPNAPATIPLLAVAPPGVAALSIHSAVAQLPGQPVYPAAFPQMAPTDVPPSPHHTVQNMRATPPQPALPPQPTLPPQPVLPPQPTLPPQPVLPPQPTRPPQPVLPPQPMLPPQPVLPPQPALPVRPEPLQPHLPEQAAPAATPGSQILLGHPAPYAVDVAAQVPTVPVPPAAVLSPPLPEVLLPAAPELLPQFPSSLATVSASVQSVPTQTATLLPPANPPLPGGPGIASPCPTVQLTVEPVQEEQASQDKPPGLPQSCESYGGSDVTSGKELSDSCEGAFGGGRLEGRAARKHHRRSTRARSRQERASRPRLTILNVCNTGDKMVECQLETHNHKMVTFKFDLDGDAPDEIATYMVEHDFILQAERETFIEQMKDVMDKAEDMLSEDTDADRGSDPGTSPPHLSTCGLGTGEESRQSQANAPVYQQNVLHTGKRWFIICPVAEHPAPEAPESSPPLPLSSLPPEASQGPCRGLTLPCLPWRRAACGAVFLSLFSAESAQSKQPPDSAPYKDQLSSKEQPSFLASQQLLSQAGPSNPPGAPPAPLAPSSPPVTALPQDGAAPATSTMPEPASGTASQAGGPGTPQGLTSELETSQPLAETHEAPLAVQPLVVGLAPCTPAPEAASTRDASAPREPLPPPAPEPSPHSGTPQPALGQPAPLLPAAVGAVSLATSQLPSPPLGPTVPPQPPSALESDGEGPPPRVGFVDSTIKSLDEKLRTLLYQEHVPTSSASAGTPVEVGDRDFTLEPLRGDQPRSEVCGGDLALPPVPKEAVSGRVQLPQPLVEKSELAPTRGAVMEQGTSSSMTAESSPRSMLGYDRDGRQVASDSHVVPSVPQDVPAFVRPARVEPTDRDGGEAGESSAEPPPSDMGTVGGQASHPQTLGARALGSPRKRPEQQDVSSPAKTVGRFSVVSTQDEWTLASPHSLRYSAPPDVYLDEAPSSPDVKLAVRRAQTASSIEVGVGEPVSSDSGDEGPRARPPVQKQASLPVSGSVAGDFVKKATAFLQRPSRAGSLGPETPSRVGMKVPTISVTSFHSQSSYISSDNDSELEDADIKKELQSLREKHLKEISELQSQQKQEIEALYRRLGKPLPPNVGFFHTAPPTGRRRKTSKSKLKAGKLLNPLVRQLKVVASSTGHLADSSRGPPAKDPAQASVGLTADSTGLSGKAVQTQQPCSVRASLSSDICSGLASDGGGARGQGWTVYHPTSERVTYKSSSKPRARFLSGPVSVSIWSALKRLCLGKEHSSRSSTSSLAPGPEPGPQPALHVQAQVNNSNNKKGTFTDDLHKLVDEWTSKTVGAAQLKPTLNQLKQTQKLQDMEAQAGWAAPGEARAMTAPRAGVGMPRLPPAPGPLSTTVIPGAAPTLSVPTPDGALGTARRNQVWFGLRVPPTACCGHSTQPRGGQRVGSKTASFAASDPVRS", "experiment": "Selectivity interaction (KinomeScan (DiscoverX)) EUB0000229b WNK2", "settings": "at 10 µM"}, "[13]": {"target": "T2, Protein-tyrosine kinase 6 (Homo sapiens, UniProt Q13882)", "T2 sequence (Q13882 whole entry, looked up)": "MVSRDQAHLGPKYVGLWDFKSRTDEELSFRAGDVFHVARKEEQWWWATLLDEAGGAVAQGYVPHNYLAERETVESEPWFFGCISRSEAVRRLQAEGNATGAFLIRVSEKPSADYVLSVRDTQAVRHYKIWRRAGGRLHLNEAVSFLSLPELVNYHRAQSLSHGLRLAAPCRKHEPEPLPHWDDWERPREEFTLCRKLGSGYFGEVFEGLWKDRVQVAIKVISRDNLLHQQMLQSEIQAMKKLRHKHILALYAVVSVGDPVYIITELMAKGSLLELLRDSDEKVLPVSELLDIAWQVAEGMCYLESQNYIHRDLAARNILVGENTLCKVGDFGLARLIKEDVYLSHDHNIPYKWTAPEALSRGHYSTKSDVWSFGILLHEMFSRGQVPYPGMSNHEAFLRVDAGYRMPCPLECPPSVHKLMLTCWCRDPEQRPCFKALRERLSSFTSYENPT", "experiment": "Selectivity interaction (ProQinase) EUB0000171b PTK6"}, "[14]": {"target": "T2, Protein-tyrosine kinase 6", "experiment": "Selectivity interaction (KinomeScan (DiscoverX)) EUB0000618a PTK6", "settings": "at 10 µM"}, "[15]": {"target": "T3, Serine/threonine-protein kinase RIO1 (Homo sapiens) (UniProt Q9BRS2)", "T3 sequence (whole entry)": "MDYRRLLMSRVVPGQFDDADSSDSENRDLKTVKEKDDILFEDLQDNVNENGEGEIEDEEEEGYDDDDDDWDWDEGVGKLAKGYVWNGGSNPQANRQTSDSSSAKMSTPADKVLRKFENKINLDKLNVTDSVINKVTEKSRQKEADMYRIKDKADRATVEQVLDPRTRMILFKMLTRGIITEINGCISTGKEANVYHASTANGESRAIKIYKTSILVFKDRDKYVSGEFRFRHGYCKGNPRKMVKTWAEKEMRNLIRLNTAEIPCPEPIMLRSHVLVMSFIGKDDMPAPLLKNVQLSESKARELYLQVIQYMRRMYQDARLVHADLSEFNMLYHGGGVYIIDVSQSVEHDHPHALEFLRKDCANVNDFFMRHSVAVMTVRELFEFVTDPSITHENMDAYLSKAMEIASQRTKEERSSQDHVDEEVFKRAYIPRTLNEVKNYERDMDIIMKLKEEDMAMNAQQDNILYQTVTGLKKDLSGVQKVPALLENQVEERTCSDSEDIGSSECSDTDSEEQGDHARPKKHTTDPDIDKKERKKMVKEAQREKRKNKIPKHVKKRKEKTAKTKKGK", "experiment": "Selectivity interaction (Kinase panel (DSF assay)) EUB0001558a RIOK1"}}}
{"smiles": "Cc1cc([C@@H](C)Nc2ccccc2C(=O)O)c2nc(N3CCOCC3)cc(=O)n2c1", "note": "[AZD-6482]", "values": [{"measurement": "% of control", "setting": "[1]", "value": 100, "unit": "%"}]}
{"smiles": "COc1cc(Nc2nc(C)cc(-c3cnn4nc(OC)ccc34)n2)cc(C(F)(F)F)c1", "values": [{"measurement": "% of control", "setting": "[2]", "value": 88, "unit": "%"}, {"measurement": "% of control", "setting": "[3]", "value": 98, "unit": "%"}, {"measurement": "% of control", "setting": "[4]", "value": 61, "unit": "%"}]}
{"smiles": "CN(C)C/C=C/C(=O)Nc1ccc(C(=O)N2CCCC(Nc3ncc(Cl)c(-c4c[nH]c5ccccc45)n3)C2)cc1", "note": "(stereo unspecified)", "values": [{"measurement": "% of control", "setting": "[5]", "value": 91, "unit": "%"}, {"measurement": "% of control", "setting": "[6]", "value": 80, "unit": "%"}]}
{"smiles": "Cc1cc(CN)cc(C)c1-c1ncn(C)c1-c1cncn1C", "values": [{"measurement": "dTagg", "setting": "[7]", "value": 0.5, "unit": "K"}]}
{"smiles": "Cc1cc(F)c(C(=O)Nc2cccc(-c3nncn3C(C)C)n2)cc1-n1cnc(C2CC2)c1", "values": [{"measurement": "% of control", "setting": "[8]", "value": 22, "unit": "%"}]}
{"smiles": "CC(=O)c1cc(-c2ccccc2OCC2CC2)c2ncccn12", "values": [{"measurement": "% of control", "setting": "[9]", "value": 105, "unit": "%"}]}
{"smiles": "COCC(=O)NC/C=C/c1ccc2ncnc(Nc3ccc(Oc4ccc(C)nc4)c(C)c3)c2c1", "note": "[CP-724714]", "values": [{"measurement": "% of control", "setting": "[10]", "value": 20, "unit": "%"}]}
{"smiles": "COc1cc(N(C)c2ccnc3ccc(C(F)(F)F)cc23)cc(OC)c1OC", "values": [{"measurement": "% binding", "setting": "[11]", "value": 100, "unit": "%"}, {"measurement": "% binding", "setting": "[12]", "value": 100, "unit": "%"}]}
{"smiles": "C=CC(=O)Nc1cccc(C(=O)Nc2ccc(Nc3cc(-c4[nH]c(SC)nc4C)ccn3)cc2)c1", "values": [{"measurement": "% of control", "setting": "[13]; at 1 µM", "value": 101, "unit": "%"}, {"measurement": "% of control", "setting": "[13]; at 5 µM", "value": 105, "unit": "%"}]}
{"smiles": "O[C@H]1CC[C@H](Nc2ncc3nc(Nc4c(F)cc(F)cc4F)n([C@H]4CCOC4)c3n2)CC1", "values": [{"measurement": "% of control", "setting": "[14]", "value": 100, "unit": "%"}]}
{"smiles": "CC(C)(O)[C@H](F)CN1Cc2cc(NC(=O)c3cnn4cccnc34)c(N3CCOCC3)cc2C1=O", "values": [{"measurement": "dTM", "setting": "[15]", "value": -0.3, "unit": "K"}]}
